Data taken from patent publication US9776992B2, “1-oxo-1,2-dihydroisoquinolin-7-yl-(5-substituted-thiophen-2-yl)-sulfonamide compounds, formulations containing those compounds, and their use as AICARFT inhibitors in the treatment of cancers” (Eli Lilly and Company, priority 2014, dated 2017).

Tests used:
AICARFT = AICARFT in vivo target inhibition (IVTI) assay in mouse plasma (AICAr)
Experimental: In vivo studies are performed using female athymic nude mice (Harlan) with a bodyweight of 23-28 g at first measurement. Upon receipt and throughout the study, the animals are housed 5 animals per cage in appropriately sized solid-bottom cages with contact bedding. The animal room is maintained on a 12-hour light/dark cycle. Animals are acclimated for 14 days prior to implantation of the NCI-H460 or HCT-116 cells on low folate diet (Teklad 130451) ad libitum and autoclaved tap water is provided ad libitum. The HCT-116 and NCI-H460 cell line are obtained from American Type Culture Collection (ATCC) and is cultured following ATCC instructions. Cells used for implantation are harvested during log phase growth and suspended in serum-free media. The suspended cells are then diluted 1:1 with BD Matrigel Matrix (ref 354234). Cells are injected in the right flank with 5.0E+06 cells (0.2 mL cell/Matrigel suspension). Tumors are monitored beginning day 8 post implant. Animals are redistributed into groups with 5-6 animals per group utilizing proprietary randomization software when average tumor volume reaches 200 mm^3. Groups 1-12 are maintained on a low folate diet (Teklad 130451) and folic acid (Sigma F8798 Lot #SLBH0909V) administration at doses listed in the Table 19 began 28 hours prior to dose initiation and 4 hours prior to each dose. Folic acid is formulated weekly in PBS and dosed via oral gavage at 0.2 mL. Groups 13-16 are placed on standard chow (Teklad 2920X) at randomization. The compound is formulated weekly in 20% HPBCD in Phosphate buffer pH 8 with one molar equivalent NaOH added. The formulated compound is administered at the doses and schedules indicated in Table 19 by oral gavage (0.2 mL). The vehicle is also given QD as the control arm of the study. Tumor volume and body weight are measured 2× a week. Tumor volume is determined by caliper measurements (mm) and using the formula for an ellipsoid sphere: tumor volume (mm^3)=length×width^2/2, where length and width refer to the larger and smaller perpendicular dimensions collected at each measurement. The animal behavior and animal health are monitored daily during dosing period.
The in vivo effects of AICARFT inhibition on the circulating concentration of AICAr is determined by liquid chromatography-mass spectrometry (LC-MS). Standard curves containing AICAr at concentrations of 1 ng/mL-2000 ng/mL are prepared in 40 mM ammonium acetate, pH 4. Plasma samples (75 μL) or standards (75 μL) are combined with 300 μL of an internal standard solution containing 13C5-AICAr (20 ng/mL) and formic acid (1%) in ACN. The samples are vortex mixed for 5 minutes and passed through a Phenomenex Phree 96-well phospholipid removal SPE plate. The eluents are collected in a 96-well plate and dried under heated nitrogen at 50° C. Each sample is reconstituted in 50 μL of 40 mM ammonium acetate, pH 4. The plates are sealed and vortexed for 5 minutes prior to analysis. The LC-MS method utilized a Shimadzu Prominence 20A HPLC system connected to an AB Sciex 5500™ or an AB Sciex 6500™ triple quadrupole mass spectrometer running Analyst® software. Extracted samples are separated using two Thermo Hypercarb™ Javelin guard columns (2.1×20 mm, 5 μm) connected in series with an injection volume of 15 μL and a flow rate of 1 mL/minute. Mobile phase A is a 95:5 mixture of 50 mM ammonium formate, pH 4 and ACN. Mobile phase B is a 70:30 mixture of ACN and MeOH spiked with 0.3% formic acid and 2% concentrated ammonium hydroxide solution (v/v). For mouse plasma samples the following gradient is used: 0 minutes, 0% B; 0.25 minutes, 0% B; 2.00 minutes, 25% B; 2.01 minutes, 95% B; 3.50 minutes, 95% B; 3.51 minutes, 0% B; 4.50 minutes, stop. For dog plasma samples the following gradient is used to remove endogenous interferences: 0 minutes, 0% B; 0.25 minutes, 0% B; 5.99 minutes, 20% B; 6.00 minutes, 95% B; 8.00 minutes, 95% B; 8.01 minutes, 0% B; 10.00 minutes, stop. […]

[1] = test system: large cell lung cancer NCI-H460; assay: Low folate in vitro proliferation assay, NCI-H460; type: cell-based; settings: Homo sapiens, 168 h; NCI-H460, low folate media, 7 days
Description: Allow cells to attach overnight. […] Final concentration of compounds will be 1×. […] Dose cells with compounds of interest for 7 days. […] Determine % inhibition for each sample (see Table 18).

IC50 [1]: 20 nM
Structure (SMILES): O=c1[nH]ccc2cc(F)c(NS(=O)(=O)c3ccc(N4CC[C@@H](O)C4)s3)cc12 [Example 1, N-(6-Fluoro-1-oxo-1,2-dihydroisoquinolin-7-yl)-5-[(3R)-3-hydroxypyrrolidin-1-yl]thiophene-2-sulfonamide]
Mean Plasma AICAr (AICARFT; HCT-116 xenograft mice, Group 6, low folate diet, folic acid 0.75 mg/kg (QD × 15, orally), 10 mg/kg QD × 14, orally, Day 23): 88 nM
Mean Plasma AICAr (AICARFT; HCT-116 xenograft mice, Group 7, low folate diet, folic acid 0.75 mg/kg (QD × 15, orally), 30 mg/kg QD × 14, orally, Day 23): 181 nM
Mean Plasma AICAr (AICARFT; HCT-116 xenograft mice, Group 14, standard chow, no folic acid, 10 mg/kg QD × 14, orally, Day 23): 44 nM
Mean Plasma AICAr (AICARFT; HCT-116 xenograft mice, Group 15, standard chow, no folic acid, 30 mg/kg QD × 14, orally, Day 23): 154 nM
Mean Plasma AICAr (AICARFT; NCI-H460 xenograft mice, Group 14, standard chow, no folic acid, 10 mg/kg QD × 13, orally, Day 20): 368 nM
Mean Plasma AICAr (AICARFT; NCI-H460 xenograft mice, Group 15, standard chow, no folic acid, 30 mg/kg QD × 13, orally, Day 20): 1400 nM
